Laboratory results published in ChEMBL document CHEMBL1201862, “PubChem BioAssay data set” (2004).
Calls of active or inactive are those of the source. Cut-off read from the data, not from the text of the source, for most assays here: actives have a measured EC50 and inactives only a lower limit.

Columns and labels:
[1] = molecular target: T1, Heat shock factor protein 1 (Mus musculus, UniProt P38532); test: inhibition of MG132-induced HSE-luciferase signal, confirmation, cell-based, NIH3T3, luminescence, dose retest (AID 2382); format: functional;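 note: NIH3T3 fibroblasts with HSF1-driven luciferase reporter stressed by proteasome inhibitor MG132; luminescence from HSF1-driven luciferase expression after 8 hours of MG132 stress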
T1 sequence (P38532 whole entry): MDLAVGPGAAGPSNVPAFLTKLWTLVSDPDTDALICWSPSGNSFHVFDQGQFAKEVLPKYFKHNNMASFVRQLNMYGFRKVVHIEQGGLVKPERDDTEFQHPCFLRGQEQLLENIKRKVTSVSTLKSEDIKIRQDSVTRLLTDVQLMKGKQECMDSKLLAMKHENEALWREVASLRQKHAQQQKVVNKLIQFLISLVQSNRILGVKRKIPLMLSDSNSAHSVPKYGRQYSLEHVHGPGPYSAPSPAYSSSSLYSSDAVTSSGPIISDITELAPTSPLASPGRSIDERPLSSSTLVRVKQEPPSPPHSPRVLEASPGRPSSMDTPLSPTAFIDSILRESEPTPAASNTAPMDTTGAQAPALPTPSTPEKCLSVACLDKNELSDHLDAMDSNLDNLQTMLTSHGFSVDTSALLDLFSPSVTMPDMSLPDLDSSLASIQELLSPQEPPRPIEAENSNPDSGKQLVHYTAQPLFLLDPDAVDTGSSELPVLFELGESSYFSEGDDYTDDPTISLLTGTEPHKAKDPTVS

INS1 = test: beta cell apoptosis inhibitors, cytokine rescue, dose response, luminescence, retest (AID 449756); format: functional, cell-based; details: Rattus norvegicus;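 note: cell death triggered by IL-1 beta plus TNF-alpha plus IFN-gamma mixture; protective hits raise ATP signal compared with cytokine alone wells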
[2] = molecular target: T2, Replicative DNA helicase DnaB (Mycobacterium tuberculosis, UniProt P9WMR3); test: DnaB intein splicing inhibitors, dose response, biochemical, cell-free fluorescence (AID 449749); format: functional
T2 sequence (P9WMR3 whole entry): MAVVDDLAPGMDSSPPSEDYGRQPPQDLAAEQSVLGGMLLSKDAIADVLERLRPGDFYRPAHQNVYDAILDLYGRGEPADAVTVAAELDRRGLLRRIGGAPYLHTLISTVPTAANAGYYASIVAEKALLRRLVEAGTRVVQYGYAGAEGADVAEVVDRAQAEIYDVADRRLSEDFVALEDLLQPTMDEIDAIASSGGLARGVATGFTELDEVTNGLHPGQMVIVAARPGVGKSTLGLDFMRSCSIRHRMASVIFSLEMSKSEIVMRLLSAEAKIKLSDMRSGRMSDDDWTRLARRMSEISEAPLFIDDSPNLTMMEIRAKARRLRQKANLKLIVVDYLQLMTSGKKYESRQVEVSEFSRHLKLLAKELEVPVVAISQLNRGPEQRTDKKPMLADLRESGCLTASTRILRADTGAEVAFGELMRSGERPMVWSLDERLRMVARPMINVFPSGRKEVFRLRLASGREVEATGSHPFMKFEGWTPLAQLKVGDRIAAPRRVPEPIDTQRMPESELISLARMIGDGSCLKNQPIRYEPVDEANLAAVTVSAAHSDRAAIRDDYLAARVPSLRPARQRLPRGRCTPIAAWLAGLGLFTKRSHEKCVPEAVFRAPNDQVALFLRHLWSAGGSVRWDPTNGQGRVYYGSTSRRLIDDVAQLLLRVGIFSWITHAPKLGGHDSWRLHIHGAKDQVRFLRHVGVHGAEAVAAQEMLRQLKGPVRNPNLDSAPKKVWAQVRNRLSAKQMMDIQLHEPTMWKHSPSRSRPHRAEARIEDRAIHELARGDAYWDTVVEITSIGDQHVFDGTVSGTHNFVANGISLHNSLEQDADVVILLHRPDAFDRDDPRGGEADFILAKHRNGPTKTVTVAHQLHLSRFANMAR

Protein RecA = molecular target: T3, Protein RecA (Mycobacterium tuberculosis, UniProt P9WHJ3); test: Fluorescence Cell-Free Homogeneous Dose Retest to Identify Inhibitors of RecA-Intein Splicing Activity. [Related pubchem assays (depositor defined):AID2097, AID2223, AID489010, AID492950]; format: functional
T3 sequence (P9WHJ3 whole entry): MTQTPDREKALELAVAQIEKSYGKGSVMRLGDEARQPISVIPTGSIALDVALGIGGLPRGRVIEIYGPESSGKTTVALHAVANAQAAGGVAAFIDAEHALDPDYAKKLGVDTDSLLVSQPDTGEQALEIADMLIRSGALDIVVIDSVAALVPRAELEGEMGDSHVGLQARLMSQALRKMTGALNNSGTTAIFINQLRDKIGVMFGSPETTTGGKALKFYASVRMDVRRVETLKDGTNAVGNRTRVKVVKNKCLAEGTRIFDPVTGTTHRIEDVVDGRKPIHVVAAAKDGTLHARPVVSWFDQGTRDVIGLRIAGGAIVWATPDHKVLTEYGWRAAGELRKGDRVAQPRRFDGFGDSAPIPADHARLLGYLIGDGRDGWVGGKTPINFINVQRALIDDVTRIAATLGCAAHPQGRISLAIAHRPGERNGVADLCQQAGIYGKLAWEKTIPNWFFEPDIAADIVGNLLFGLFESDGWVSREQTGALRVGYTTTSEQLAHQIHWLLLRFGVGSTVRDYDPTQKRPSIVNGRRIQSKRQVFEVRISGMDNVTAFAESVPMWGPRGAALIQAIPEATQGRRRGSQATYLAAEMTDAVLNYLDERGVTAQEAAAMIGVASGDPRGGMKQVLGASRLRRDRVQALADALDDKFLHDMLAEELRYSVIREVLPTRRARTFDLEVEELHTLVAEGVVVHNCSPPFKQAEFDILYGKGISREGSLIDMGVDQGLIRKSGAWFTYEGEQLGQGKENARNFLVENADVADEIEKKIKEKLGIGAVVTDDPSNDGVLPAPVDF

[3] = Luminescence Cell-Based Dose Response HTS to Identify Activators of Luciferase Translation or Activity in H4 […] Cells. [Related pubchem assays: 1829 (Project Summary), 1814 (Primary HTS)]; format: functional
H4 = test: Luminescence Cell-Based Dose Response HTS to Identify Activators of 5'UTR Stem-Loop Driven Prion Protein mRNA Translation in H4 Neuroglioblastoma Cells. [Related pubchem assays: 1829 (Project Summary), 1814 (Primary HTS)]; format: functional; details: Homo sapiens
[4] = cytotoxicity toward NIH3T3 fibroblasts, dose response, counter-screen, cell-based, ATP luminescence, mouse fibroblasts (AID 2010); format: functional;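 note: cells exposed to compound for about 90 hours before reading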
[5] = inhibitors of intracellular T. cruzi replication, confirmation, NIH3T3 host cells, beta-gal luminescence (AID 2044); format: functional, cell-based;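 note: intracellular parasites grown in NIH/3T3 mouse fibroblasts as host cells; luminescent beta-galactosidase reporter signal from transgenic T. cruzi replicating inside host cells; inhibitors lower the luminescence signal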
[6] = system: Streptococcus sp. 'group A'; test: growth inhibition of control SK(-) GAS strain, dose response, counter-screen for streptokinase expression inhibitor project, luminescence, kanamycin, BacTiterGlo, confirmation (AID 1900); format: functional, organism-based
Streptokinase A = molecular target: T4, Streptokinase A (Streptococcus pyogenes serotype M1, UniProt P10520); test: S. pyogenes streptokinase expression inhibitors, potency, dose response, plasminogen activation absorbance, OD405 (AID 1914); format: functional, Streptococcus pyogenes M1 GAS;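 note: secreted streptokinase activity via plasminogen activation per viability signal from cell pellet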
T4 sequence (P10520 whole entry): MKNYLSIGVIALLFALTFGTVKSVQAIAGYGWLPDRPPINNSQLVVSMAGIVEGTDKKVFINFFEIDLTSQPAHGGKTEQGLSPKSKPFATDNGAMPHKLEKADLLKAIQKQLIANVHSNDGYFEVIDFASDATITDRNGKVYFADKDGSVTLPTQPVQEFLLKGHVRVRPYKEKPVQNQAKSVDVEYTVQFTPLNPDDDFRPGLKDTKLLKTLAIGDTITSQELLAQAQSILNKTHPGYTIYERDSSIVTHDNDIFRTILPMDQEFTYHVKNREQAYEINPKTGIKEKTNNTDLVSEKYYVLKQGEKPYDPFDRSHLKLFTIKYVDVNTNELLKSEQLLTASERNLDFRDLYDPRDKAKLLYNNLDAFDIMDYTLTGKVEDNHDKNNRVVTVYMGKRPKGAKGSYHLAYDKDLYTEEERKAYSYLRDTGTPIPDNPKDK

Streptococcus = test: Group A Streptococcus viability loss, dose response, counter-screen for streptokinase expression inhibitor project, luminescence, BacTiterGlo (AID 1915); format: functional, organism-based;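 note: potency for reduction of bacterial viability or growth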
[7] = molecular target: T5, Rac GTPase-activating protein 1 (Homo sapiens, UniProt Q9H0H5); test: MgcRacGAP GTPase-activating activity inhibitors, confirmation, biochemical, ADP Hunter fluorescence, primary and confirmatory (AID 624330); format: functional
T5 sequence (Q9H0H5 whole entry): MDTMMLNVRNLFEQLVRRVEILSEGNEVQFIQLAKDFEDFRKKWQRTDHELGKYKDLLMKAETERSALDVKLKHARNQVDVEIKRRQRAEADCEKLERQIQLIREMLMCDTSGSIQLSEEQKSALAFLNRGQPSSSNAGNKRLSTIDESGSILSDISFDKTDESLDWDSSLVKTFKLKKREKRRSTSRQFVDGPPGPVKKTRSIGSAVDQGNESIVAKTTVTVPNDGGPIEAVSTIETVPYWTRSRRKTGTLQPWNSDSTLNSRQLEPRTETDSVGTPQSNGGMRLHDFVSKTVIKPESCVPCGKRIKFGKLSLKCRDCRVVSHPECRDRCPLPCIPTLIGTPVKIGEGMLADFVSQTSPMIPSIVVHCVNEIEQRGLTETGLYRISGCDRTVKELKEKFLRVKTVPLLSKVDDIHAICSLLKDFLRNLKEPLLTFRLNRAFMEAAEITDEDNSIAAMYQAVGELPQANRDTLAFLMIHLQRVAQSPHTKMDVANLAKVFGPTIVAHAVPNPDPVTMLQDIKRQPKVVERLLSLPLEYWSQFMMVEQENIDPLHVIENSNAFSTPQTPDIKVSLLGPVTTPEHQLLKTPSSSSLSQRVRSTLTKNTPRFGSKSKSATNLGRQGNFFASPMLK

NC(=NOC(=O)Cc1ccccc1[N+](=O)[O-])c1cccnc1
EC50 [1]: > 195 µM (not active)

COc1ccc(C2CC(c3cccc(C)c3)n3nc(N)nc3N2)cc1 (stereo unspecified)
AC50 (INS1): > 260 µM (inactive)

Cn1c2c(c(=O)n(C)c1=O)[C@@]1(C(=O)Nc3ccccc31)C(C#N)=C(N)O2
AC50 [2]: 34.1 µM (inconclusive) | EC50 (Protein RecA): 17.5 µM (active)

CSCCC(NC(=O)CCC(=O)OCC(=O)[C@@]1(O)CCC2[C@@H]3CCC4=CC(=O)C=C[C@]4(C)C3[C@@H](O)C[C@@]21C)C(=O)O (stereo partly specified)
EC50 [1]: 0.216 µM (active)

N#CC1=C(N)Oc2[nH]nc(-c3ccccc3)c2C1c1ccncc1 (stereo unspecified)
AC50 [2]: 12.3 µM (active) | EC50 (Protein RecA): 3.12 µM (active)

O=C(NCc1ccco1)C(=O)NCC(c1ccco1)N1CCOCC1 (stereo unspecified)
EC50 [1]: > 195 µM (not active)

CC1CCN(C2=NC(=O)/C(=C/c3ccccc3F)S2)CC1
EC50 [1]: > 195 µM (not active)

O=C(Cc1ccccc1)Nc1nc2ccccc2s1
EC50 [1]: > 195 µM (not active)

COc1cc(OC)cc(C(=O)NCC(=O)OCc2nc3ccccc3s2)c1
EC50 [3]: 14.6 µM (active) | EC50 (H4): 0.165 µM (active)

O=C(COC(=O)/C=C/c1ccccc1[N+](=O)[O-])Nc1ccc(OCc2ccccc2)cc1
EC50 [3]: 4.21 µM (active) | EC50 (H4): 40.1 µM (active)

O=S(=O)(Nc1ccc2c(c1)OCCO2)c1cccc2nsnc12
EC50 [1]: 4.32 µM (active)

Cc1cc(Nc2ccccc2)c2c([N+](=O)[O-])ccc(C)c2n1
EC50 [4]: > 30 µM (not active) | AC50 [2]: > 380 µM (inactive) | EC50 (Protein RecA): 0.551 µM (active) | EC50 [5]: 1.41 µM (active)

CC(=O)/C=C1\N(C)c2ccc(C)cc2C1(C)C
EC50 [4]: > 60 µM (not active) | AC50 (INS1): 5.32 µM (active) | EC50 [5]: 1.93 µM (active)

CCOC(=O)C1C(=O)OC(C)(C)C1C(C)C(=O)c1ccc(C)cc1 (stereo unspecified)
EC50 [1]: > 195 µM (not active)

CN(C)c1ccc(NC(S)=NC23CC4CC(CC(C4)C2)C3)cc1
EC50 [3]: 20.6 µM (active) | AC50 (INS1): 83.2 µM (active) | EC50 (H4): 17.1 µM (active)

O=C(CCl)c1ccc(Cc2ncc(C(F)(F)F)cc2Cl)s1
EC50 [6]: 4.31 µM (active) | EC50 (Streptokinase A): 3.38 µM (active) | AC50 [2]: 3.57 µM (active) | EC50 (Protein RecA): 1.69 µM (active) | EC50 (Streptococcus): 6.13 µM (active)

O=C(CC1C(=O)NCCN1Cc1ccc(-c2ccccc2)cc1)NC1CCC1 (stereo unspecified)
AC50 (INS1): > 260 µM (inactive)

Cc1ccc(NC(=O)NC(=O)CN2CCN(c3ccc(O)cc3)CC2)c(C)c1
IC50 [7]: 64.9 µM (active) | EC50 [1]: > 195 µM (not active)

C=CCN1C(=O)NC(c2ccc(OC)cc2)(C(F)(F)F)S/C1=C(\C#N)c1nnc(N2CCOCC2)n1-c1ccccc1 (stereo unspecified)
AC50 [2]: 6.76 µM (active) | EC50 (Protein RecA): 9.73 µM (active)

O=C(COc1ccc(F)cc1)Nc1cc(Cl)ccc1-n1cncn1
EC50 [1]: > 195 µM (not active)

CC(C)(C)C(=O)/C=C/c1ccc(Oc2ccccc2)cc1
EC50 [1]: > 195 µM (not active)

O=C1C(/C=C(\O)c2ccccc2)=NCC2c3ccccc3CCN12 (stereo unspecified)
EC50 [3]: 0.491 µM (active) | EC50 (H4): 8.18 µM (active)

CN1N=C(C(C)(C)C)CS/C1=N/c1ccccc1
AC50 (INS1): > 260 µM (inactive)
